According to patent publication US10550388B2, “Targeting pleiotrophin signaling to limit high-grade glioma invasion” (The Board of Trustees of the Leland Stanford Junior …, priority 2017, dated 2020):
“Also recorded” adds a separate entry of the source.

Columns and labels:
SU-DIPG-XIII FL cells [1] = assay: CellTiter-Glo cell viability assay; format: cell-based, human; conditions: base media without growth factors, vs scrambled control or no shRNA
Description: To assess cell viability, 5,000 DIPG cells per well were seeded in base media or full growth media in a 96-well plate. Inhibitors were added at the appropriate concentrations. After 72 hours, CellTiter-Glo reagent 2.0 was added at a 1:1 ratio, and cells were lysed. Luminescence was measured after stabilization of signal for 10 minutes at room temperature.

SU-DIPG-XIII FL cells [2] = assay: Orthotopic xenograft of PTPRZ1 knockdown DIPG cells; format: in vivo, NSG mice; conditions: knockdown cells xenografted to the pons, vs scrambled shRNA control cells; for DIPG cells invading the SVZ: 8 weeks following xenograft
Description: (§1) NSG mice at age P34-36 were orthotopically xenografted with SU-DIPG-XIII frontal lobe CMV-GFP-luciferase cells, in a similar procedure to as previously described (Grasso et al., supra; Venkatesh et al. (2015) Cell 161, 803-816). Briefly, a single-cell suspension of SU-DIPG-XIII frontal lobe CMV-GFP-luciferase cells at passage 16-19 was prepared in sterile HBSS immediately before beginning the xenograft procedure. 600,000 cells in 3 μL were stereotactically injected into the pons of the left hemisphere of NSG mice, through a 31-gauge burr hole. Stereotactic coordinates used were: 1 mm lateral to midline, 0.8 mm posterior to lambda suture, and 5 mm deep. Cells were injected at a rate of 0.4 μL/min using a digital pump and a 31-gauge Hamilton syringe. After infusion of cells, the syringe needle was kept in place for 2 minutes, and then withdrawn manually at a rate of 0.875 mm/min to minimize the backflow of cells.
(§2) Mice were imaged using an IVIS Spectrum to ensure tumor engraftment and monitor tumor size. Mice were anesthetized under 1% isoflurane, intraperitoneally injected with luciferin (15 mg/kg), and imaged for bioluminescence every minute until the peak total flux was reached.
(§3) For lentiviral infection, DIPG cells or neural precursor cells were exposed to shRNA-expressing lentivirus for 16 hours. Puromycin was added 48 hours after infection to select for virally infected cells. After removal of puromycin, shRNA-treated neural precursor cells were grown for 7 days (with addition of media on day 3-4) for generation of conditioned media. After removal of puromycin, shRNA-treated DIPG cells were grown for at least one passage before experimental use.

PTPRZ1 = assay: Knockdown of PTPRZ1 in DIPG cells (qPCR, Western blot); format: cell-based, human; conditions: vs scrambled shRNA control or no shRNA; for PTPRZ1 gene expression: qPCR
Description: Samples were run on Bio-Rad Mini-Protean TGX precast gels (Bio-Rad, Hercules, Calif.), and the protein was transferred onto polyvinylidene fluoride (PVDF) membranes. Membranes were blocked with 5% bovine serum albumin (BSA) in TBST for 1 hour, and incubated in primary antibodies diluted in 1% BSA/TBST overnight at 4° C. Primary antibodies used were: mouse anti-pleiotrophin (1:100; Santa Cruz Biotechnology, Santa Cruz, Calif.), goat anti-SPARC (1:100; R&D Systems, Minneapolis, Minn.), goat anti-SPARCL1 ([…]; R&D Systems, Minneapolis, Minn.), rabbit anti-HSP90B (GeneTex, Irvine, Calif.), rabbit anti-GRP78 (1:500, Abcam, Cambridge, Mass.), rabbit anti-PTPRZ (Thermo Fisher, Waltham, Mass.), and rabbit beta-actin (1:2000; Cell Signaling, Danvers, Mass.). Secondary antibodies conjugated to horseradish peroxidase (HRP) were added for 1 hour at room temperature. Secondary antibodies used were: goat anti-rabbit IgG-HRP (Cell Signaling, Danvers, Mass.), horse anti-mouse IgG-HRP (Cell Signaling, Danvers, Mass.), and donkey anti-goat IgG-HRP (Santa Cruz Biotechnology, Santa Cruz, Calif.). Proteins were visualized using Clarity Western ECL Substrate (Bio-Rad, Hercules, Calif.).
Cells or tissue were lysed and homogenized in TRIzol Reagent (Life Technologies, Carlsbad, Calif.) and RNA was extracted according to reagent protocol. RNA was treated with dsDNase, and cDNA was synthesized using Thermo Scientific Maxima First Strand cDNA Synthesis Kit for RT-qPCR with dsDNase (Thermo Fisher Scientific K1671). RT-PCR was performed on Eppendorf Mastercycler Realplex2 using Universal SYBR Green Supermix (BioRad, Hercules, Calif.). Differential expression was determined using the deltaCt method. Primers used were as follows: […]
as §3, with “After removal of puromycin, shRNA-treated DIPG cells were grown for at least one passage before experimental use.” left out

RhoA = assay: G-LISA RhoA activation assay in DIPG cells; format: cell-based, human; conditions: DIPG cells expressing the shRNA exposed to SVZ hNPC CM or the PTN complex; vs scrambled shRNA
Description: (§4) SU-DIPG-XIII frontal lobe cells were starved in TSM base (without B27 (−A) supplement, heparin, or growth factors) for 48 hours prior to treatment. After treatment, cells were lysed in the RhoA activation assay kit cell lysis buffer (Cytoskeleton, Denver, Colo.). Lysates were incubated on ice for 1 minute, clarified by centrifugation at 10,000×g, 4° C. for 1 minute, and the supernatants were snap-frozen and stored immediately at −80° C. Protein concentrations were measured by the BCA protein assay (Thermo Scientific, Waltham, Mass.), and samples were diluted to 0.5 mg/mL by the addition of cell lysis buffer.
RhoA activation assays were performed using the G-LISA RhoA absorbance-based activation assay (Cytoskeleton, Denver, Colo.). Lysate samples were incubated in a 96-well plate with pre-linked Rho GTP-binding protein for 30 minutes at 4° C. shaking at 400 rpm. Wells were incubated in anti-RhoA primary antibody (1:250) at room temperature for 45 minutes shaking at 400 rpm. Secondary HRP-labeled antibody (1:62.5) was added at room temperature for 45 minutes shaking at 400 rpm. Results were visualized by addition of HRP detection reagents for 12 minutes at 37° C., and the absorbance was read at 490 nm. All assays were performed in triplicate.

ROCK = assay: Rho-associated kinase (ROCK) activity assay in DIPG cells; format: cell-based, human; conditions: DIPG cells expressing the shRNA exposed to SVZ hNPC CM or the PTN complex; vs scrambled shRNA
Description: as §4
ROCK activation assays were performed using the Rho-associated kinase (ROCK) activity assay (Millipore, Bedford, Mass.). Cell lysates were incubated in wells of a myosin phosphatase target subunit 1 (MYPT1) pre-coated 96-well plate, for 30 minutes at 30° C. with moderate shaking. Wells were incubated in anti-phospho-MYPT1(Thr696) primary antibody (1:1000) for 1 hour with moderate shaking. Goat anti-rabbit IgG HRP secondary antibody (1:2000) was added for 1 hour with moderate shaking. Results were visualized with TMB/E substrate, incubating in the dark for 10 minutes, and absorbance was read at 450 nm. All assays were performed in triplicate.

SU-DIPG-XIII FL cells [3] = assay: Matrigel invasion assay (Boyden chamber) of DIPG cells; format: cell-based, human; conditions: DIPG cells expressing the shRNA; for DIPG invasion toward SVZ hNPC CM or the PTN complex: vs scrambled control; for baseline DIPG invasion toward unconditioned hNPC media: vs scrambled shRNA
Description: To test for chemoattraction and invasion toward neural precursor cell conditioned media or another candidate chemoattractant, a single-cell suspension of 100,000 DIPG cells in Tumor Stem Media (TSM) base (with B27 (−A) and heparin, without growth factors) was seeded in the top inserts of BioCoat growth factor reduced Matrigel invasion chambers (Corning, Bedford, Mass.), after rehydration of the inserts. Chemoattractant media was added to the bottom of the chamber. All conditions were plated in triplicate. After 72 hours, media was aspirated, and the non-invading cells on top of the layer of Matrigel were scrubbed off. The invading cells were fixed in 4% paraformaldehyde and then stained with 0.1% crystal violet in 10% methanol in distilled water. The number of invading cells was quantified by the intensity of the crystal violet dye on the invading side of the Matrigel. The dye was collected in 10% acetic acid, and absorbance was measured at 595 nm.
To test the ROCK or HSP90 inhibitors in the Matrigel invasion assay, the inhibitors were added to the suspension of glioma cells in TSM base (with B27 (−A) and heparin) seeded in the top inserts at the appropriate concentrations, and neural precursor cell conditioned media was plated in the bottom chambers. The rest of the procedure was performed as described above.

HSP90B = assay: Knockdown of HSP90B expression in the mouse SVZ; format: in vivo; conditions: lentivirus injected into the SVZ; vs scrambled shRNA control
Description: (§5) Mice used for shRNA lentivirus studies received shRNA-expressing lentivirus in the SVZ at P27-29 and DIPG cells in the left pons at P34-36. For lentiviral injections, 2 μL of shRNA-expressing lentivirus were stereotactically injected into the SVZ. Stereotactic coordinates used were: 1.3 mm lateral to midline, 0.1 mm posterior to bregma suture, and 2 mm deep. Virus was injected and the needle was withdrawn according to the same procedure as described above.
Mice were intraperitoneally injected with Avertin (tribromoethanol) for anesthesia, and then transcardially perfused with 20 mL of ice-cold PBS. Brains were dissected out and fixed in 4% paraformaldehyde in PBS overnight at 4° C., and were then transferred to 30% sucrose in PBS for cryoprotection. Brains were embedded in Tissue-Tek O.C.T. (Sakura, Torrance, Calif.). Brains from mice older than P10 were sliced into 40 μm coronal or sagittal sections using a sliding microtome (Microm HM450; Thermo Scientific, Waltham, Mass.). Brains from mice age P0 to P10 were sliced into 25 μm coronal sections using a cryostat (Leica Biosystems CM3050 S; 1058 Wetzlar, Germany). For immunohistochemistry, a 1 in 6 series of 25 μm or 40 μm sections was incubated in blocking solution (3% normal donkey serum, 0.3% Triton X-100 in TBS) at room temperature for 1 hour. […]

SU-DIPG-XIII FL cells [4] = assay: shRNA-expressing lentivirus injected into the SVZ of orthotopically xenografted mice; format: in vivo, NSG mice; conditions: vs scrambled shRNA control; for DIPG cells invading the SVZ: 16 weeks following pontine xenograft
Description: as §1, §5, §2
For quantification of DIPG invasion of the SVZ after knock down of targets in the SVZ, 5 NSG mice per group were injected with shRNA-expressing lentivirus in bilateral SVZs and orthotopically xenografted with SU-DIPG-XIII FL in the left pons. Mice were perfused for analysis 16 weeks after xenograft. A 1:6 series of coronal slices from each mouse brain was immunostained and imaged, and the number of GFP^+ HNA^+ glioma cells within 200 μm of the lateral ventricles in all slices containing lateral ventricles was manually counted.
For quantification of neural stem/precursor cells in the SVZ after knock down of PTN in the SVZ, a 1:6 series of coronal slices from each mouse was immunostained and imaged, and the number of Sox2^+ neural stem/precursor cells in a 20×Z-stack was manually counted. The density of Sox2^+ cells was calculated as cells/mm^3.

[5] = listed as shRNA lentivirus targeting PTPRZ1
[6] = listed as shRNA-expressing lentivirus targeting the HSP90B1 gene

Row | Substance | cell viability of DIPG cells expressing the shRNA (SU-DIPG-XIII FL cells [1]) | cell viability of DIPG cells expressing the shRNA (SU-DIPG-XIII FL cells [1]; [5]) | DIPG cells invading the SVZ (SU-DIPG-XIII FL cells [2]) | DIPG cells invading the SVZ (SU-DIPG-XIII FL cells [2]; [5]) | decrease of total tumor size (engraftment), bioluminescent signal on initial IVIS imaging (SU-DIPG-XIII FL cells [2]) | tumor growth over time (SU-DIPG-XIII FL cells [2]) | PTPRZ protein levels (PTPRZ1; Western blot) | PTPRZ1 gene expression (PTPRZ1) | PTPRZ1 gene expression (PTPRZ1; [5]) | RhoA activation (RhoA) | ROCK activation (ROCK) | DIPG invasion toward SVZ hNPC CM or the PTN complex (SU-DIPG-XIII FL cells [3]) | DIPG invasion toward SVZ hNPC CM or the PTN complex (SU-DIPG-XIII FL cells [3]; [5]) | baseline DIPG invasion toward unconditioned hNPC media (SU-DIPG-XIII FL cells [3]) | baseline DIPG invasion toward unconditioned hNPC media (SU-DIPG-XIII FL cells [3]; [5]) | HSP90B expression in the SVZ (HSP90B) | DIPG cells invading the SVZ (SU-DIPG-XIII FL cells [4]) | DIPG cells invading the SVZ (SU-DIPG-XIII FL cells [4]; [6]) | tumor engraftment (bioluminescent flux) (SU-DIPG-XIII FL cells [4]; listed as shRNA lentivirus targeting HSP90B1) | tumor engraftment (bioluminescent flux) (SU-DIPG-XIII FL cells [4]; [6])
1 | PTPRZ1 shRNA: lentivirus-expressed shRNA against human PTPRZ1, Sigma TRCN0000356374, SEQ ID NO: 13 (CCGGATACCTAAGTCTTCGTTAATACTCGAGTATTAACGAAGACTTAGGTATTTTTTG) | mildly decreases cell viability | mild decrease in cell viability | significantly fewer cells expressing PTPRZ1 shRNA reached the SVZ | fewer DIPG cells with knockdown of PTPRZ1 invaded the SVZ | 10 fold | rate of growth was similar | effective knock down | Robust shRNA-mediated knockdown of PTPRZ1 expression | effective knock down of PTPRZ1 gene expression | abrogation of RhoA and ROCK activation; also recorded: decreased activation of RhoA and ROCK | abrogation of RhoA and ROCK activation; also recorded: decreased activation of RhoA and ROCK | partial abrogation of invasion | partially abrogates DIPG invasion | substantially decreases baseline invasion | decrease in baseline DIPG invasion | – | – | – | – | –
2 | sh-HSP90B1: lentivirus-expressed shRNA against mouse HSP90B1, Sigma TRCN0000071925, SEQ ID NO: 12 (CCGGGCTATTCAGTTGGATGGGTTACTCGAGTAACCCATCCAACTGAATAGCTTTTTG) | – | – | – | – | – | – | – | – | – | – | – | – | – | – | – | low HSP90B expression after knockdown | fewer orthotopically xenografted GFP^+ HNA^+ SU-DIPG-XIII FL cells invaded the SVZ | fewer DIPG cells invading the SVZ | equivalent | no effect on initial tumor engraftment
